Assay results: US20240025906A1 (NEURON23, INC., priority 2022, published 2024)
Read-outs that look alike come from different tables or passages of the source.

Key:
TYK2 JH2 = target: T1, TYK2 JH2 (Homo sapiens, UniProt P29597); assay: TYK2 JH2 binding assay (KINOMEscan KdELECT competitive binding); settings: TYK2 JH2 domain
T1 construct: purchased DiscoverX (KINOMEscan KdELECT service); host or cells: E. coli BL21-derived (T7 phage display) or HEK-293
Method in brief: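 Kd values come from qPCR measurement of kinase retained on an immobilized-ligand resin after 1 h room-temperature competition with compound in an 11-point, 3-fold series.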

[1] = tested on: JAK1/TYK2 pSTAT5 (Tyr694/699) in THP-1 cell line; assay: IFNa-stimulated JAK1/TYK2 pSTAT5 (Tyr694/699) inhibition cellular assay, AlphaLISA; assay type: cell-based; settings: THP-1 cells, AlphaLISA (Assay B)
Method in brief: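 Compound dilutions were dispensed first, and HBSS-suspended THP-1 cells were added on top (final top concentration 10000 nM, 6-fold series). After 1 h at 37 °C, IFNa (100 ng/mL as added) was applied for 30 min. Cells were then lysed and pSTAT5 was quantified by AlphaLISA.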

[2] = KINOMEscan KdELECT (Assay A), read-out: Biochemical TYK2_DiscoverX_JH2_BND_Kd
[3] = DiscoverX KINOMEscan KdELECT (Assay A), read-out: Biochemical TYK2_DiscoverX_JH2_BND_Kd
[4] = Homo sapiens, IFNa-stimulated, read-out: Cellular_THP1_IFNa-pSTATS_TYK2
[5] = KINOMEscan KdELECT (Assay A), read-out: Biochemical TYK2_JH2_Kd
[6] = Homo sapiens, IFNa-stimulated, read-out: Cellular THP1_IFNa-pSTATS_IC50

T1 sequence (P29597 589-875 limits assumed): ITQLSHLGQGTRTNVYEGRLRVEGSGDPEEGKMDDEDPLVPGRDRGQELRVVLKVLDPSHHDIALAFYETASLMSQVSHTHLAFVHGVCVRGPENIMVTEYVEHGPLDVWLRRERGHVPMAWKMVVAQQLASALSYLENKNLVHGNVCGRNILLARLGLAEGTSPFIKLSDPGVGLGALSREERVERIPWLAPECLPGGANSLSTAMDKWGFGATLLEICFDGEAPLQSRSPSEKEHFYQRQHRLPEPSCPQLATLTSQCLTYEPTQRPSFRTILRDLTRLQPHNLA

| Kd (TYK2 JH2; [2]) [nM] | Kd (TYK2 JH2; [3]) [nM] | IC50 [1, 4] [nM] | SMILES | further results |
| --- | --- | --- | --- | --- |
| ≤ 100 |  |  | CNc1ncc(-c2nc3cc(N4CCOCC4)ccc3o2)c2cc(NC(=O)[C@@H]3C[C@@H]3C(F)(F)F)ncc12 (single isomer, unassigned) [Example 1067] | IC50 ([1]; IFNa-stimulated pSTAT5 (Tyr694/699), read-out: Cellular_THP1_IFNa-pSTATS_TYK2): ≤ 500 nM |
|  | ≤ 100 | ≤ 500 | CNc1ncc(-c2nc3cc(OC)ccc3o2)c2cc(NC(=O)[C@@H]3C[C@@H]3C(F)F)ncc12 (racemic) [Example 393, 2-(difluoromethyl)-N-(5-(5-methoxybenzo[d]oxazol-2-yl)-8-(methylamino)-2,7-naphthyridin-3-yl)cyclopropane-1-carboxamide] |  |
|  |  |  | CNc1ncc(-c2nc3cc(F)ccc3o2)c2cc(NC(=O)C3CC3)ncc12 [Example 181, N-(5-(5-fluorobenzo[d]oxazol-2-yl)-8-(methylamino)-2,7-naphthyridin-3-yl)cyclopropanecarboxamide] | Kd (TYK2 JH2; [5]): ≤ 100 nM; IC50 [1, 6]: ≤ 500 nM |
| ≤ 100 |  | ≤ 500 | CNc1ncc(C#Cc2ccc(OCC(C)(C)O)cc2)c2cc(NC(=O)C3CC3)ncc12 [Example 714, N-(5-((4-(2-hydroxy-2-methylpropoxy)phenyl)ethynyl)-8-(methylamino)-2,7-naphthyridin-3-yl)cyclopropanecarboxamide] |  |
| ≤ 100 |  | ≤ 500 | [2H]C([2H])([2H])Nc1ncc(C#Cc2ccc(OC)cn2)c2cc(NC(=O)C3CC3)ncc12 [Example 778, N-(5-((5-methoxypyridin-2-yl)ethynyl)-8-((methyl-d3)amino)-2,7-naphthyridin-3-yl)cyclopropanecarboxamide] |  |
| ≤ 100 |  | ≤ 500 | CNc1ncc(C#Cc2ccc3c(c2)C=CC(C)(C)O3)c2cc(NC(=O)C3CC3)ncc12 [Example 978, N-[5-[2-(2,2-dimethylchromen-6-yl)ethynyl]-8-(methylamino)-2,7-naphthyridin-3-yl]cyclopropanecarboxamide] |  |
|  |  |  | CNc1ncc(Br)c2cc(NC(=O)C3CC3)nnc12 [Example 177, N-(5-bromo-8-(methylamino)pyrido[3,4-c]pyridazin-3-yl)cyclopropanecarboxamide] | Kd (TYK2 JH2; [5]): ≤ 100 nM; IC50 [1, 6]: > 500 nM |
|  | ≤ 100 | ≤ 500 | CNc1ncc(-c2nc3cc(N4CCC[C@@H](OC)C4)ccc3o2)c2cc(NC(=O)C3CC3)ncc12 [Example 290, (R)-N-(5-(5-(3-methoxypiperidin-1-yl)benzo[d]oxazol-2-yl)-8-(methylamino)-2,7-naphthyridin-3-yl)cyclopropanecarboxamide] |  |
| ≤ 100 |  | ≤ 500 | CNc1ncc(-c2nc3cc(OCC(C)(C)F)ccc3o2)c2cc(NC(=O)C3CC3)ncc12 [Example 941, N-[5-[5-(2-fluoro-2-methyl-propoxy)-1,3-benzoxazol-2-yl]-8-(methylamino)-2,7-naphthyridin-3-yl]cyclopropanecarboxamide] |  |
| ≤ 100 |  | ≤ 500 | CNc1ncc(C#Cc2ccc(-n3nccn3)cc2)c2cc(NC(=O)C3CC3)ncc12 [Example 772, N-(5-((4-(2H-1,2,3-triazol-2-yl)phenyl)ethynyl)-8-(methylamino)-2,7-naphthyridin-3-yl)cyclopropanecarboxamide] |  |
| ≤ 100 |  | > 500 | CNc1ncc(-c2nc3n(n2)CCCC3)c2cc(NC(=O)C3CC3)ncc12 [Example 842, N-(8-(methylamino)-5-(5,6,7,8-tetrahydro-[1,2,4]triazolo[1,5-a]pyridin-2-yl)-2,7-naphthyridin-3-yl)cyclopropanecarboxamide] |  |
|  |  |  | C#Cc1cnc(NC)c2cnc(NC(=O)C3CC3)cc12 [Example 125, N-(5-ethynyl-8-(methylamino)-2,7-naphthyridin-3-yl)cyclopropanecarboxamide] | Kd (TYK2 JH2; [5]): ≤ 100 nM; IC50 [1, 6]: > 500 nM |
|  |  |  | CNc1ncc(C2=CCCOC2)c2cc(NC(=O)C3CC3)ncc12 [Example 77, N-(5-(5,6-dihydro-2H-pyran-3-yl)-8-(methylamino)-2,7-naphthyridin-3-yl)cyclopropanecarboxamide] | Kd (TYK2 JH2; [5]): ≤ 100 nM; IC50 [1, 6]: > 500 nM |
| ≤ 100 |  | ≤ 500 | CNc1ncc(C#Cc2nc3ccccn3n2)c2cc(NC(=O)C3CC3)ncc12 [Example 598, N-(5-([1,2,4]triazolo[1,5-a]pyridin-2-ylethynyl)-8-(methylamino)-2,7-naphthyridin-3-yl)cyclopropanecarboxamide] |  |
|  | ≤ 100 | ≤ 500 | CNc1ncc(-c2nc3cc(C(N)=O)ccc3o2)c2cc(NC(=O)C3CC3)ncc12 [Example 237, 2-(6-(cyclopropanecarboxamido)-1-(methylamino)-2,7-naphthyridin-4-yl)benzo[d]oxazole-5-carboxamide] |  |
|  | ≤ 100 | ≤ 500 | CNc1ncc(-c2nc3ccc(N4CCC(F)CC4)cn3n2)c2cc(NC(=O)C3CC3)ncc12 [Example 484, N-(5-(6-(4-fluoropiperidin-1-yl)-[1,2,4]triazolo[1,5-a]pyridin-2-yl)-8-(methylamino)-2,7-naphthyridin-3-yl)cyclopropanecarboxamide] |  |
|  | ≤ 100 | ≤ 500 | CNc1ncc(-c2nc3ccc(N4CCO[C@@H](C)C4)cn3n2)c2cc(NC(=O)[C@H]3C[C@H]3C(F)(F)F)ncc12 (single isomer, unassigned) [Example 541] |  |
|  | ≤ 100 | ≤ 500 | CNc1ncc(-c2nc3ccc(N4CC5CN(C)CC(C4)O5)cn3n2)c2cc(NC(=O)C3CC3)ncc12 [Example 504, N-(5-(6-(7-methyl-9-oxa-3,7-diazabicyclo[3.3.1]nonan-3-yl)-[1,2,4]triazolo[1,5-a]pyridin-2-yl)-8-(methylamino)-2,7-naphthyridin-3-yl)cyclopropanecarboxamide] |  |
| ≤ 100 |  | ≤ 500 | CNc1ncc(C#Cc2ccc(C(C)(F)F)cn2)c2cc(NC(=O)C3CC3)ncc12 [Example 729, N-(5-((5-(1,1-difluoroethyl)pyridin-2-yl)ethynyl)-8-(methylamino)-2,7-naphthyridin-3-yl)cyclopropanecarboxamide] |  |
| ≤ 100 |  |  | CNc1ncc(C#Cc2ccc(OCF)cc2)c2cc(NC(=O)[C@H]3C[C@H]3C)ncc12 [Example 1073, (1S,2R)-N-[5-[2-[4-(fluoromethoxy)phenyl]ethynyl]-8-(methylamino)-2,7-naphthyridin-3-yl]-2-methyl-cyclopropanecarboxamide] | IC50 ([1]; Homo sapiens, IFNa-stimulated pSTAT5 (Tyr694/699), read-out: Cellular_THP1_IFNa-pSTATS_TYK2): ≤ 500 nM |
|  |  |  | CNc1ncc(-c2cccc(COC)c2)c2cc(NC(=O)C3CC3)ncc12 [Example 168, N-(5-(3-(methoxymethyl)phenyl)-8-(methylamino)-2,7-naphthyridin-3-yl)cyclopropanecarboxamide] | Kd (TYK2 JH2; [5]): ≤ 100 nM; IC50 [1, 6]: > 500 nM |
| ≤ 100 |  | ≤ 500 | CNc1ncc(-c2nc3cc(N4CCOCC4)ccc3o2)c2cc(NC(=O)C3CC3)nnc12 [Example 914, N-(8-(methylamino)-5-(5-morpholinobenzo[d]oxazol-2-yl)pyrido[3,4-c]pyridazin-3-yl)cyclopropancarboxamide] |  |
| ≤ 100 |  | ≤ 500 | CNc1ncc(C#Cc2ccc(Oc3ccn(C)n3)cc2)c2cc(NC(=O)C3CC3)ncc12 [Example 971, N-[8-(methylamino)-5-[2-[4-(1-methylpyrazol-3-yl)oxyphenyl]ethynyl]-2,7-naphthyridin-3-yl]cyclopropanecarboxamide] |  |
| ≤ 100 |  | ≤ 500 | CNc1ncc(C#Cc2cc3ccc(F)cn3n2)c2cc(NC(=O)C3CC3)ncc12 [Example 767, N-(5-((6-fluoropyrazolo[1,5-a]pyridin-2-yl)ethynyl)-8-(methylamino)-2,7-naphthyridin-3-yl)cyclopropanecarboxamide] |  |
|  | ≤ 100 | ≤ 500 | CNc1ncc(-c2nc3cc(N4CCO[C@@H](C)C4)ccc3o2)c2cc(Nc3ccn(C)n3)ncc12 [Example 417, (S)—N^1-methyl-N^6-(1-methyl-1H-pyrazol-3-yl)-4-(5-(2-methylmorpholino)benzo[d]oxazol-2-yl)-2,7-naphthyridine-1,6-diamine] |  |
|  | ≤ 100 | ≤ 500 | CNc1ncc(-c2nc3ccc(OCC(C)(C)O)cn3n2)c2cc(NC(=O)C3CC3)ncc12 [Example 501, N-(5-(6-(2-hydroxy-2-methylpropoxy)-[1,2,4]triazolo[1,5-a]pyridin-2-yl)-8-(methylamino)-2,7-naphthyridin-3-yl)cyclopropanecarboxamide] |  |
| ≤ 100 |  | ≤ 500 | CNc1ncc(C#Cc2ccc3c(c2)CCC(CO)O3)c2cc(NC(=O)C3CC3)ncc12 (centres unmarked) [Example 981] |  |
|  | ≤ 100 | ≤ 500 | [2H]C([2H])([2H])Nc1ncc(-c2nc3ccccn3n2)c2cc(NC(=O)[C@H]3C[C@H]3F)ncc12 [Example 566, (1R,2R)—N-(5-([1,2,4]triazolo[1,5-a]pyridin-2-yl)-8-((methyl-d3)amino)-2,7-naphthyridin-3-yl)-2-fluorocyclopropane-1-carboxamide] |  |
